Laboratory results as given in US10786582B2, “Gd(III)-dithiolane gold nanoparticle conjugates” (Northwestern University, priority 2015, dated 2020).

Assay: r1 relaxivity of dt-Gd(III) nanoconjugates, Bruker minispec 60 MHz
Type: physicochemical
Conditions: per Gd(III); 60 MHz (1.41 T), 37° C., water plus 0.01% tween 20
Experimental: A stock solution of backfilled dt-Gd(III) SNA conjugates was made (700 uL). This stock was serially diluted four times for a total of five solutions. Solutions were heated to 37° C. and two hundred μL of each concentration was placed into a Bruker minispec mq60 NMR spectrometer (60 MHz) for measurement of T1 relaxation time. Data were collected using an inversion recovery pulse sequence using 4 averages, a 15 s repetition time and 10 data points. The remaining volumes of each solution were utilized for ICP analysis of [Gd(III)]. The inverse of the longitudinal relaxation time (1/T1, s−1) was plotted versus the Gd(III) concentration (mM). […] Relaxivities of DNA-Gd@spheres, Gd(III)-DNA and complex 5 were collected by the analogous procedure (Table 3, FIG. 7).

Work on “2,2′2″(10(3-(((1-(5-(1,2-dithiolan-3-yl)pentyl)-1,2,3-triazol-4-yl)methyl)amino)-3-oxopropyl)-1,4,7,10-tetraazacyclododecyl-gadolinium(III) complex [dt-Gd(III)]” yielded a r1 relaxivity ionic of 4.9 mM⁻¹ s⁻¹.
